Source: article PMC5107132 (European journal of pharmacology, 2016)
Marks after values point to notes of the source that are not given here.

Tested on: Wistar rats
Assay: Rotarod test
Format: in vivo, rat
Conditions: 15 mg/kg MP-III-022 in combination with 15 mg/kg flumazenil (FLU), i.p.

C#Cc1ccc2c(c1)C(c1ccccc1F)=N[C@H](C)c1c(C(=O)NC)ncn1-2 [MP-III-022, (R)-8-Ethynyl-6-(2-fluorophenyl)-N,4-dimethyl-4H-benzo[f]imidazo[1,5-a][1,4]diazepine-3-carboxamide]
Rotarod, time remaining on the rod revolving at 15 rpm: 175.17 ± 4.83^a,d s
